{
  "source": "patent US10092580B2",
  "about": "“Controlled-release otic structure modulating and innate immune system modulating compositions and methods for the treatment of otic disorders” (OTONOMY, INC., priority 2008, dated 2018)",
  "origin": "cited, not measured here",
  "key": {"[1]": {"conditions": "minute concentrations (e.g., 0.05%)"}, "[2]": {"conditions": "administered by IV"}, "[3]": {"test_system": "V2-R", "conditions": "infusion into the scala tympani"}},
  "data": [
    {"smiles": "[H]/N=C(\\N/C(=N/[H])NCCCCCCNC(=N)NC(=N)Nc1ccc(Cl)cc1)Nc1ccc(Cl)cc1", "note": "[chlorhexidene]", "values": [
      {"measurement": "ototoxicity", "setting": "[1]", "value": "highly ototoxic"}
    ]},
    {"smiles": "CCN(CC)CC(=O)Nc1c(C)cccc1C", "note": "[Lidocaine]", "values": [
      {"measurement": "sufferers in whom the noise associated with tinnitus is reduced or eliminated", "setting": "[2]", "value": "60-80%"}
    ]},
    {"smiles": "Cc1ccccc1C(=O)Nc1ccc(C(=O)N2CCCC(N(C)C)c3ccccc32)cc1", "note": "(stereo not drawn) [OPC-31260]", "values": [
      {"measurement": "Meniere's disease symptoms", "setting": "[3]", "value": "marked reduction"}
    ]}
  ]
}
